In patent US20180185510A1, “ANTIBODY DRUG CONJUGATES OF KINESIN SPINDEL PROTEIN (KSP) INHIBITORS WITH ANTI-B7H3-ANTIBODIES” (BAYER PHARMA AKTIENGESELLSCHAFT, priority 2015, published 2018):
One block for each molecule: values may come before it.

What was measured:
[1] = tested on: NCI-H292: human mucoepidermoid lung carcinoma cells; assay: MTT assay, cytotoxicity of metabolites, NCI-H292; type: cell-based; details: NCI-H292, 96 h, 96 h incubation
Procedure: NCI-H292: human mucoepidermoid lung carcinoma cells, ATCC-CRL-1848, standard medium: RPMI 1640 (Biochrom; #FG1215, stab. glutamine)+10% FCS (Biochrom; #S0415).
(§1) The cells were cultivated according to the standard method using the growth media listed under C-1. The test is carried out by detaching the cells with a solution of Accutase in PBS (Biochrom AG #L2143), pelleting, resuspending in culture medium, counting and sowing into a 96-well culture plate with white bottom (Costar #3610) (NCI H292: 2500 cells/well in a total volume of 100 μl). The cells were then incubated in an incubator at 37° C. and 5% carbon dioxide. After 48 h, the medium was replaced. The metabolites in 10 μl of culture medium in concentrations from 10^−5M to 10^−13M were then pipetted to the cells (in triplicate), and the assay was then incubated in an incubator at 37° C. and 5% carbon dioxide. […] To this end, the MTT reagent was incubated with the cells for 4 h, followed by lysis of the cells overnight by addition of the detergent. The dye formed was detected at 570 nm (Infinite M1000 pro, Tecan). The measured data were used to calculate the IC50 of the growth inhibition using the DRC (dose response curve). The proliferation of cells which were not treated with test substance but were otherwise identically treated was defined as the 100% figure.

[2] = Flux assay for cell permeability using Caco-2 cells; details: human, Caco-2
[3] = target: T1, motor domain of the human kinesin spindle protein KSP/Eg5 (Homo sapiens, UniProt P52732); assay: Inhibition of the kinesin spindle protein, ATPase activity (malachite green); type: biochemical; details: 10 nM KSP/Eg5 motor domain, microtubuli, ATP 500 μM, 2 h RT
T1 construct: The motor domain of the human kinesin spindle protein KSP/Eg5; purchased tebu-bio/Cytoskeleton Inc 027EG01-XL
T1 sequence (P52732 18-359 limits assumed): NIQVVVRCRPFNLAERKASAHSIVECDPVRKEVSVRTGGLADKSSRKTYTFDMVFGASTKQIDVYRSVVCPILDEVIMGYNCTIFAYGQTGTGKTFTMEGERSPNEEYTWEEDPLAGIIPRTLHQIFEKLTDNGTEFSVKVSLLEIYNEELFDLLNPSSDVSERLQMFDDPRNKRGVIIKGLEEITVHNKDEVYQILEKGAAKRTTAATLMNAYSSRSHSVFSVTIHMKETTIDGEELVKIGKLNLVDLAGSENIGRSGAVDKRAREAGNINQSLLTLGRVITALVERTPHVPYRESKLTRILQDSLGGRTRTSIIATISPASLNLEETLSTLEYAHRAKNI
Procedure: The motor domain of the human kinesin spindle protein KSP/Eg5 (tebu-bio/Cytoskeleton Inc, No. 027EG01-XL) was incubated in a concentration of 10 nM with microtubuli (bovine or porcine, tebu-bio/Cytoskeleton Inc) stabilized with 50 μg/ml taxol (Sigma No. T7191-5MG) for 5 min at RT in 15 mM PIPES, pH 6.8 (5 mM MgCl2 and 10 mM DTT, Sigma). […] Incubation was at RT for 2 h. ATPase activity was detected by detecting the inorganic phosphate formed using malachite green (Biomol). […] The positive controls used were monastrol (Sigma, M8515-1 mg) and ispinesib (AdooQ Bioscience A10486). The individual data of the dose-activity curve are eight-fold determinations. The IC50 values are means of two independent experiments.

KPL4 = assay: MTT assay, cytotoxicity of metabolites, KPL4; type: cell-based; details: KPL4, 96 h, 96 h incubation
Procedure: as §1

[4] = target: T2, human B7H2 (RnDSystems, 8206-B7) (human, UniProt O75144 19-258, limits assumed); assay: ELISA; antibody captured on anti-human IgG Fc, antigen 37 ng/ml, anti-His HRP / Amplex Red
T2 construct: Bought antigen, detected with an anti-His HRP antibody
T2 sequence (looked up): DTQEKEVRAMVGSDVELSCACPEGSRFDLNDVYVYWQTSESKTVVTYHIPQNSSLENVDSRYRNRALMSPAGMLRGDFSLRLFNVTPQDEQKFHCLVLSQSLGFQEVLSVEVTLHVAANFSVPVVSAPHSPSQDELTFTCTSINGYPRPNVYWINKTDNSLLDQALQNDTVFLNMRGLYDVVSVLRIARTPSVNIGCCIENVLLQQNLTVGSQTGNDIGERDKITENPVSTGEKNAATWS
Procedure: (§2) TPP5706 was synthesized as described above. Binding of TPP5706 to human B7H3 and to human B7H2 and B7H4 was characterized using ELISAs. […] After washing once with PBS, 0.05% Tween, the plate was blocked with 100% Smart Block (Candor) for one hour at 37° C. The antibody to be tested (e.g. TPP5706 or one of its derivatives) was then attached to the plate (2 μg/ml IgG in PBS, 0.05% Tween, 10% Smart Block; 1 hour, room temperature). […] After washing three times, the plate was incubated with Amplex Red for 30 minutes and then read.

[5] = target: T3, human B7H3 (RnDSystems, 2318-B3-050/CF) (human, UniProt Q5ZPR3 29-461); assay: as above
T3 construct: Bought antigen, detected with an anti-His HRP antibody, so a His tag is implied
T3 sequence (looked up): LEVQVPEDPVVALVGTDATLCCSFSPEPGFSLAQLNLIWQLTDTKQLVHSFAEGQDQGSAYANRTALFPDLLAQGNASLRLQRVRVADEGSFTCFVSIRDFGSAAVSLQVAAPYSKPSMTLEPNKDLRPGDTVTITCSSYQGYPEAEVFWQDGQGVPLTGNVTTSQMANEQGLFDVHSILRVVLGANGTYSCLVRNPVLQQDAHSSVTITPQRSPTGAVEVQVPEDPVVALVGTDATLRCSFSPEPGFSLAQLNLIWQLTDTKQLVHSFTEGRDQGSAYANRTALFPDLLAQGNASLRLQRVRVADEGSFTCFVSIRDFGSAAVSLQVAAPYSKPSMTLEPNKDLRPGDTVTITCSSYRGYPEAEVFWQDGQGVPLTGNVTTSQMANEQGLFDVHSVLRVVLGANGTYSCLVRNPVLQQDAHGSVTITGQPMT
Procedure: as §2

[6] = target: T4, human B7H4 (RnDSystems, 6576-B7) (human, UniProt Q7Z7D3 29-258, limits assumed); assay: as above
T4 construct: Bought antigen, detected with an anti-His HRP antibody
T4 sequence (looked up): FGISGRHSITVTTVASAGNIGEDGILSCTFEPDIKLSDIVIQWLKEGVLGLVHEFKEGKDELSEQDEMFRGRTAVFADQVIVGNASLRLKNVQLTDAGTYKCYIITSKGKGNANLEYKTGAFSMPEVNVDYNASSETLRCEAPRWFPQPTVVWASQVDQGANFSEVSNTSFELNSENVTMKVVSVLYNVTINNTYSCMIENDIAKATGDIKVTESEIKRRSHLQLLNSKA
Procedure: as §2

Molecule: CC(C)(C)[C@H](c1cc(-c2cc(F)ccc2F)cn1Cc1ccccc1)N(CC[C@H](N)C(=O)NCCNC(=O)CNC(=O)CC(SC[C@H](N)C(=O)O)C(=O)O)C(=O)CO (mixture of isomers) [Example M26, 4-[(2-{[2-({(2S)-2-Amino-4-[{(1R)-1-[1-benzyl-4-(2,5-difluorophenyl)-1H-pyrrol-2-yl]-2,2-dimethylpropyl}(glycoloyl)amino]butanoyl}amino)ethyl]amino}-2-oxoethyl)amino]-2-{[(2R)-2-amino-2-carboxyethyl]sulphanyl}-4-oxobutanoic acid-trifluoroacetic acid (1:1)]
- IC50 [1]: 63.8 nM
- Papp B→A at 2 h [2]: 1.3 ×10⁻⁶ cm/s

Molecule: CC(C)(C)[C@H](c1cc(-c2cc(F)ccc2F)cn1Cc1ccccc1)N(CCCN)C(=O)CSC[C@H](NC(=O)CCOCCOCCOCCOCCNC(=O)CNC(=O)C(CC(=O)O)SC[C@H](N)C(=O)O)C(=O)O (stereo partly drawn) [Example M21, (2R,24S,27R)-27-Amino-2-[({2-[(3-aminopropyl) {(1R)-1-[1-benzyl-4-(2,5-difluorophenyl)-1H-pyrrol-2-yl]-2,2-dimethylpropyl}amino]-2-oxoethyl}sulphanyl)methyl]-24-(carboxymethyl)-4,20,23-trioxo-7,10,13,16-tetraoxa-25-thia-3,19,22-triazaoctacosane-1,28-dioic acid/trifluoroacetic acid (1:2)]
- IC50 [3]: 2.31 nM

Molecule: CC(C)(C)[C@H](c1cc(-c2cc(F)ccc2F)cn1Cc1ccccc1)N(CC[C@H](N)C(=O)NCCC(=O)N[C@@H](CCC(=O)O)C(=O)O)C(=O)CO [Example M23, N-{(2S)-2-Amino-4-[{(1R)-1-[1-benzyl-4-(2,5-difluorophenyl)-1H-pyrrol-2-yl]-2,2-dimethylpropyl}(glycoloyl)amino]butanoyl}-beta-alanyl-L-glutamic acid-trifluoroacetic acid (1:1)]
- IC50 (KPL4): 500 nM
- IC50 [1]: 500 nM

- IC50 [3]: 1.07 nM
Molecule: CC(C)(C)[C@H](c1cc(-c2cc(F)ccc2F)cn1Cc1ccccc1)N(CCCN)C(=O)CO [Example M9, N-(3-Aminopropyl)-N-{(1R)-1-[1-benzyl-4-(2,5-difluorophenyl)-1H-pyrrol-2-yl]-2,2-dimethylpropyl}-2-hydroxyacetamide]

Molecule: CC(C)(C)[C@H](c1cc(-c2cc(F)ccc2F)cn1Cc1ccccc1)N(CC[C@H](N)C(=O)NCCNC(=O)CNC(=O)C(CC(=O)O)SC[C@H](N)C(=O)O)C(=O)CO (single isomer, unassigned) [Example M15]
- IC50 (KPL4): 169 nM
- IC50 [1]: 133 nM

Molecule: CC(C)(C)[C@H](c1cc(-c2cc(F)ccc2F)cn1Cc1ccccc1)N(CC[C@H](N)C(=O)NCCC(=O)N[C@H](CCC(=O)O)C(=O)O)C(=O)CO [Example M24, N-{(2S)-2-Amino-4-[{(1R)-1-[1-benzyl-4-(2,5-difluorophenyl)-1H-pyrrol-2-yl]-2,2-dimethylpropyl}(glycoloyl)amino]butanoyl}-beta-alanyl-D-glutamic acid-trifluoroacetic acid (1:1)]
- IC50 (KPL4): 500 nM
- IC50 [1]: 167 nM

Molecule: CC(C)(C)[C@H](c1cc(-c2cc(F)ccc2F)cn1Cc1ccccc1)N(CC[C@H](N)C(=O)NCCNC(=O)CNC(=O)C(CC(=O)O)SC[C@H](N)C(=O)O)C(=O)CO (stereo partly drawn) [Example M27, 4-[(2-{[2-({(2S)-2-Amino-4-[{(1R)-1-[1-benzyl-4-(2,5-difluorophenyl)-1H-pyrrol-2-yl]-2,2-dimethylpropyl}(glycoloyl)amino]butanoyl}amino)ethyl]amino}-2-oxoethyl)amino]-3-{[(2R)-2-amino-2-carboxyethyl]sulphanyl}-4-oxobutanoic acid-trifluoroacetic acid (1:1)]
- IC50 [1]: 276 nM

Molecule: CC(C)(C)C(c1cc(-c2cc(F)ccc2F)cn1Cc1ccccc1)N(CC[C@H](N)C(=O)NCCNC(=O)CN1C(=O)CC(SC[C@H](N)C(=O)O)C1=O)C(=O)CO.O=C(O)C(F)(F)F (stereo partly drawn) [Example M1, S-[1-(2-{[2-({(2S)-2-Amino-4-[{(1R)-1-[1-benzyl-4-(2,5-difluorophenyl)-1H-pyrrol-2-yl]-2,2-dimethylpropyl}(glycoloyl)amino]butanoyl}amino)ethyl]amino}-2-oxoethyl)-2,5-dioxopyrrolidin-3-yl]-L-cysteine/trifluoroacetic acid (1:1)]
- IC50 (KPL4): 500 nM
- IC50 [1]: 500 nM
- Papp B→A at 2 h [2]: 0.78 ×10⁻⁶ cm/s

- Quotient signal (B7)/signal (buffer) [4]: < 1.5
- Quotient signal (B7)/signal (buffer) [5]: 294
- Quotient signal (B7)/signal (buffer) [6]: < 1.5
B1: TPP-5706 (antibody, human IgG1, kappa, V domains shown)
VH: QVQLQQPGAELVKPGASVKMSCKASGYTFTIYNVHWIKQTPGQGLEWMGTIFPGNGDTSYNQKFKDKATLTTDKSSKTAYMQLNSLTSEDSAVYYCARWDDGNVGFAHWGQGTLVTVSA
VL: DIQMTQSPASLSASVGETVTITCRASENINNYLTWFQQKQGKSPQLLVYHAKTLAEGVPSRFSGSGSGTQFSLKINSLQPEDFGSYYCQHHYGTPPTFGGGTKLEIKR
notes: Chimera of the murine Fv of the antibody from hybridoma PTA-4058 with the Ch1-Ch3 regions of a human IgG1; expressed as complete IgG; also called anti-B7H3 AK1B

- Quotient signal (B7)/signal (buffer) [5]: 51
B2: TPP-3803 (antibody, human IgG1, kappa, V domains shown)
VH: QVKLQQSGAELVKPGASVKLSCKASGYTFTNYDINWVRQRPEQGLEWIGWIFPGDGSTQYNEKFKGKATLTTDTSSSTAYMQLSRLTSEDSAVYFCARQTTATWFAYWGQGTTVTVSS
VL: DIELTQSPTTLSVTPGDRVSLSCRASQSISDYLHWYQQKSHESPRLLIKYASQSISGIPSRFSGSGSGSDFTLSINSVEPEDVGVYYCQNGHSFPLTFGAGTKLELKR
notes: also called anti-B7H3 AK1A
